In PubChem BioAssay AID1259407 (Chemical Carcinogenesis Research Information System (CCRIS), 2018) one finds mutagenic call data, which are given here for six molecules.

SMILES strings stand for the structures. Activity calls are given as the source filed them. The rule behind the calls is not given here.

The subject of the series is CCRIS mutagenicity, Ames/micronucleus/aberration tests. Put plainly: CCRIS mutagenicity studies.

On to `CC(C)(C)NCC(O)COc1ccccc1C1=CCCC1` (stereo unspecified), for which the mutagenic call reads like this: (Test System: AMES SALMONELLA TYPHIMURIUM, Strain/Indicator: TA98, Metabolic Activation: NONE, Method: STANDARD PLATE) “inactive; negative”; (Test System: AMES SALMONELLA TYPHIMURIUM, Strain/Indicator: TA98, Metabolic Activation: RAT, LIVER, S-9, AROCLOR 1254, Method: STANDARD PLATE) “inactive; negative”.

With `COc1cc(OC)c2c(=O)c3c(O)ccc(OC)c3oc2c1`, the mutagenic call is “inactive; negative” (Test System: AMES SALMONELLA TYPHIMURIUM, Strain/Indicator: TA97, Metabolic Activation: NONE, Method: PREINCUBATION); “active; positive” (Test System: AMES SALMONELLA TYPHIMURIUM, Strain/Indicator: TA97, Metabolic Activation: RAT, LIVER, S-9, PHENOBARBITAL AND 5,6-BENZOFLAVONE, Method: PREINCUBATION); “inactive; negative” (Test System: AMES SALMONELLA TYPHIMURIUM, Strain/Indicator: TA98, Metabolic Activation: RAT, LIVER, S-9, PHENOBARBITAL AND 5,6-BENZOFLAVONE, Method: PREINCUBATION); “inactive; negative” (Test System: AMES SALMONELLA TYPHIMURIUM, Strain/Indicator: TA100, Metabolic Activation: RAT, LIVER, S-9, PHENOBARBITAL AND 5,6-BENZOFLAVONE, Method: PREINCUBATION); “active; positive” (Test System: AMES SALMONELLA TYPHIMURIUM, Strain/Indicator: TA2637, Metabolic Activation: RAT, LIVER, S-9, PHENOBARBITAL AND 5,6-BENZOFLAVONE, Method: PREINCUBATION).

On to `CN(CCCl)c1ccc(/C=C/C2=[N+](C)c3ccccc3C2(C)C)cc1`, for which the mutagenic call by setting is: (Test System: Ames Salmonella typhimurium, Strain/Indicator: TA98, Metabolic Activation: None, Method: Preincubation) “inactive; negative”; (Test System: Ames Salmonella typhimurium, Strain/Indicator: TA98, Metabolic Activation: Rat, Liver, S-9, Aroclor 1254, Method: Preincubation) “inactive; negative”; (Test System: Ames Salmonella typhimurium, Strain/Indicator: TA100, Metabolic Activation: None, Method: Preincubation) “inactive; negative”; (Test System: Ames Salmonella typhimurium, Strain/Indicator: TA100, Metabolic Activation: Rat, Liver, S-9, Aroclor 1254, Method: Preincubation) “inactive; negative”; (Test System: Ames Salmonella typhimurium, Strain/Indicator: TA102, Metabolic Activation: None, Method: Preincubation) “inactive; negative”; (Test System: Ames Salmonella typhimurium, Strain/Indicator: TA102, Metabolic Activation: Rat, Liver, S-9, Aroclor 1254, Method: Preincubation) “inactive; negative”. In addition, the mutagenic call is “inactive; negative” (Test System: Ames Salmonella typhimurium, Strain/Indicator: TA1535, Metabolic Activation: None, Method: Preincubation) and “inactive; negative” (Test System: Ames Salmonella typhimurium, Strain/Indicator: TA1535, Metabolic Activation: Rat, Liver, S-9, Aroclor 1254, Method: Preincubation).

On to `CCCCCCCCCCCCCC(=O)N(OC(C)=O)c1ccc2c(c1)Cc1ccccc1-2`, for which the mutagenic call (Test System: UDS HUMAN FIBROBLASTS, Strain/Indicator: THY INCORP (NON-S-PHASE), Metabolic Activation: NONE, Method: AUTORADIOGRAPHY) is “active; positive”.

Take `COC1=CC(=O)C=CC1=Nc1c2ccccc2nc2ccccc12`: the mutagenic call (Test System: AMES SALMONELLA TYPHIMURIUM, Strain/Indicator: TA1537, Metabolic Activation: NONE, Method: STANDARD PLATE) was “inactive; negative”.

On to `CC(=O)Nc1ccc(S(N)(=O)=O)cc1`, for which the mutagenic call is, setting by setting: (Test System: AMES SALMONELLA TYPHIMURIUM, Strain/Indicator: TA98, Metabolic Activation: NONE, Method: PREINCUBATION) “inactive; negative”; (Test System: AMES SALMONELLA TYPHIMURIUM, Strain/Indicator: TA98, Metabolic Activation: RAT, LIVER, S-9, AROCLOR 1254, Method: PREINCUBATION) “inactive; negative”; (Test System: AMES SALMONELLA TYPHIMURIUM, Strain/Indicator: TA100, Metabolic Activation: NONE, Method: PREINCUBATION) “inactive; negative”; (Test System: AMES SALMONELLA TYPHIMURIUM, Strain/Indicator: TA100, Metabolic Activation: RAT, LIVER, S-9, AROCLOR 1254, Method: PREINCUBATION) “inactive; negative”.
